From patent US6756362B2, “Methods and compositions based on inhibition of cell invasion and fibrosis by anionic polymers” (priority 1991, dated 2004)

How the values were obtained:
[1] = system: rat meningeal fibroblasts (RMF); assay: Stripe assay, RMF; type: cell-based; parameters: key: Bands that were completely inhibitory to cell adhesion, migration and/or invasion were evaluated as (−); those allowing limited cell adhesion, migration and/or invasion (+/−); those permissive to cell adhesion, migration and/or invasion as (+); conditions: for DS-PG Effect on Adhesion, Migration and Invasion: 2 days following plating
Protocol: (§1) Primary Cell Cultures. Primary cultures of rat meningeal fibroblasts (RMF) were obtained from P-3 rat pups. The tissue was removed from the animals and transferred to Leibovitz's L-15 with L-glutamine medium. The tissue was then cut into small pieces with a scalpel blade, enzymatically dissociated with 0.25% trypsin in Ca^2+/Mg^2+ free Hank's balanced salt solution (CMF-HBSS, Gibco Laboratories) for 20 minutes at 37° C., and mechanically triturated. The cells were rinsed with DMEM plus 10% FCS, concentrated by centrifugation and subsequently diluted in DMEM with 10% FCS for plating at 5.0×10^6 cells per 75 cm^2 flask. Adult rat sciatic nerve fibroblasts (RSF) were obtained by explantation of 1 mm sections of adult rat sciatic nerve.
(§2) The stripe assay was performed essentially as described by Snow et al. (1990, Exp. Neural. 309:111-130). Tissue culture Petri dishes (Falcon, 60 mm) were precoated with 0.5 ml of a mixture of 5 cm^2 section nitrocellulose (Schleicher & Schuell, Type BA 85) dissolved in 6 ml methanol, and air dried in a laminar flow hood. Cellulose filter paper (Whatman #1) was cut into 12×0.35 mm strips with a McIlwain tissue chopper (The Mickle Laboratory Engineering Co., LTD). A strip of filter paper was soaked in 20 μl of a solution of DS-PG or KS/CS-PG and LN at given concentration, blotted onto the nitrocellulose-coated dish for 30 sec. and removed. The test solution was allowed to air dry. This process was repeated several times creating clearly defined, equally spaced parallel bands of uniform width on the plates. A thin layer of 0.1 or 1 mg/ml LN was then spread evenly across the bands with a bent glass Pasteur pipet, and covered with culture medium (FIG. 1).
(§3) Plates were seeded with cell suspensions of 2.0×10^5 cells/ml or 4-10 DRG explants. The cultures were assessed for degree of adhesion, migration and/or invasion of the DS-PG or KS/CS-PG bands over a period of up to 7 days using a Leitz Fluovert microscope.
(§4) Bands that were completely inhibitory to cell adhesion, migration and/or invasion were evaluated as (−), those allowing limited cell adhesion, migration and/or invasion (+/−), and those permissive to cell adhesion, migration and/or invasion as (+). cell adhesion was defined as the initial interaction between the cell surface and the substratum which results in cell attachment and spreading. Cell migration was operationally defined as cell movement within the same substratum, and cell invasion was operationally defined as cell movement from one type of substratum to another type of substratum.

[2] = system: adult rat sciatic nerve fibroblasts (RSF); assay: Stripe assay, RSF; type: cell-based; parameters: key: Bands that were completely inhibitory to cell adhesion, migration and/or invasion were evaluated as (−); those allowing limited cell adhesion, migration and/or invasion (+/−); those permissive to cell adhesion, migration and/or invasion as (+); conditions: for DS-PG Effect on Adhesion, Migration and Invasion: 2 days following plating
Protocol: as §1, §2, §3, §4

[3] = system: epidural fibrosis at laminectomy site, Lewis inbred rats; assay: Epidural fibrosis after lumbar laminectomy in rats, gross evaluation; type: in vivo, rat; parameters: TOTAL SCORE / TOTAL SCORE 2 WEEKS: scale not given here; conditions: for inhibition of scar formation (in words): versus buffer control; for TOTAL SCORE 2 WEEKS: Table 4, 2 weeks post-implantation; for Bone Growth / Deep Scar / Gelfoam Appearance: score 0-3 per Table 1; for Bone Growth / Deep Scar / Gelfoam Appearance / Superficial Scar: agent-soaked GELFOAM in laminectomy site; for Superficial Scar: score 1-3 per Table 1
Protocol: Epidural fibrosis was investigated after lumbar laminectomy in rats. In this model, a laminectomy was performed at the lumbar 3 and 5 vertebrae and then the test agent was applied to the laminectomy site. Subsequently, the laminectomy sites were examined for fibrosis by gross dissection or by histological analysis.
Laminectomies (described below) were performed at lumbar vertebrae L3 and L5 to provide auto-controls within each animal. Segments of GELFOAM® (Upjohn) soaked with experimental or control solutions were inserted into the laminectomy site. The soared GELFOAM® fragments were prepared and coded 24 hours beforehand. The GELFOAM® segments were soaked in solutions of dextran sulfate in calcium/magnesium-free phosphate buffered saline (CMF-PBS), dextran in CMF-PBS, or CMF-PBS alone. In some laminectomy sites, the GELFOAM® fragments were omitted, in order to serve as sham operations. Subsequently, the evaluation by gross dissection was done without knowledge of which solutions had been placed in which laminectomy site. Thus, the experiments were double-blind.
Lewis inbred rats were anesthetized with 4% chloral hydrate (34 mg/100 g body weight). The dorsal skin was incised and the paraspinal muscles were separated from the spinous processes of lumbar vertebrae L2 through L6. The spinous processes of L3 and L5 were removed with a rongeurs; then the vertebral lamina was removed with a micro-rongeurs creating a rectangular laminectomy defect 4×2 mm in size. After bleeding was stopped, a GELFOAM® segment was placed into the laminectomy site according to a randomized protocol. The overlying paraspinal muscles were closed over the site by suturing the superficial fascia together with resorbable 6-0 PDS II (Ethicon). The skin incision was closed with wound clips.
The animals were kept for two weeks prior to gross evaluation. At that time, the rats were anesthetized with 4% chloral hydrate and the wound was reopened by incising, the skin and separating the paraspinal muscles. The quality and quantity of scar tissue above the laminectomy site, the appearance of the GELFOAM® and the extent of new bone growth was evaluated by visual and tactile observation during sharp dissection. After the gross evaluation was complete, the rats were euthanized by anesthesia overdose.
All gross evaluations were made prior to breaking the treatment code, but the observations have been tabulated and presented below according to treatment group.

[4] = system: epidural fibrosis at laminectomy site, Lewis inbred rats; assay: as above; type: in vivo, rat; parameters: scale not given here; conditions: Table 4; 20 mg/ml; 4 weeks post-implantation
[5] = 0.1 mg/ml DS-PG + 20 μg/ml LN stripes
[6] = 0.2 mg/ml DS-PG + 20 μg/ml LN stripes
[7] = 0.4 mg/ml DS-PG + 20 μg/ml LN stripes
[8] = 0.8 mg/ml DS-PG + 20 μg/ml LN stripes
[9] = Table 2, sum of four criteria, lower = greater inhibition of scar formation, two weeks
[10] = 0.25 mg/ml KS/CS-PG + LN stripes
[11] = 0.5 mg/ml KS/CS-PG + LN stripes
[12] = 1.0 mg/ml KS/CS-PG + LN stripes
[13] = 2.7 mg/ml KS/CS-PG + LN stripes

With Dermatan sulfate proteoglycan [DS-PG] the “DS-PG Effect on Adhesion, Migration and Invasion” value (“DS-PG Effect on Adhesion” for short) [1, 5] was “+”, the “DS-PG Effect on Adhesion” value [1, 6] was “+/−” and the “DS-PG Effect on Adhesion” value [1, 7] was “−”. The “DS-PG Effect on Adhesion” value [1, 8] was “−”, the “DS-PG Effect on Adhesion” value [2, 5] was “+/−” and the “DS-PG Effect on Adhesion” value [2, 6] was “+/−”. The “DS-PG Effect on Adhesion” value [2, 7] was “−” and the “DS-PG Effect on Adhesion” value [2, 8] was “−”.

In the case of Heparin, the “inhibition of scar formation (in words)” value ([3]; 20 mg/ml) is reported as “marginal improvement”, the “TOTAL SCORE” value ([3]; Table 5, agent 20 mg/ml) is reported as 7.3 ± 2.5 and the “hemorrhage and hematoma formation at the laminectomy site” value ([3]; rat, in vivo) is reported as “caused hemorrhage and hematoma formation”.

For dextran [reference compound], the “TOTAL SCORE” value [3, 9] was 8.8 ± 2.4, the “TOTAL SCORE 2 WEEKS” value ([3]; 20 mg/ml) was 9.5 ± 2.4 and the “TOTAL SCORE” value ([3]; Table 5, agent 20 mg/ml) was 8.8 ± 2.4. For the same substance, the “Bone Growth” value ([3]; two weeks) was 1.6 ± 0.9, the “Deep Scar” value ([3]; two weeks) was 2.3 ± 0.9 and the “Gelfoam Appearance” value ([3]; two weeks) was 2.2 ± 0.8. For the same substance, the “Superficial Scar” value ([3]; two weeks) was 2.7 ± 0.5 and the “TOTAL SCORE 4 WEEKS” value [4] was 10.0 ± 1.2.

With dextran sulfate the “inhibition of scar formation (in words)” value ([3]; 20 mg/ml) was “potent inhibition”, the “TOTAL SCORE” value [3, 9] was 1.7 ± 0.9 and the “TOTAL SCORE” value ([3]; Table 3 dose response, 0.2 mg/ml) was 7.8 ± 1.9. The “TOTAL SCORE” value ([3]; Table 3 dose response, 2 mg/ml) was 3.0 ± 2.3, the “TOTAL SCORE” value ([3]; Table 3 dose response, 20 mg/ml) was 1.3 ± 0.5 and the “TOTAL SCORE 2 WEEKS” value ([3]; 20 mg/ml) was 1.2 ± 0.5. For the same substance, the “TOTAL SCORE” value ([3]; Table 5, agent 20 mg/ml) was 1.7 ± 0.9, the “hemorrhage and hematoma formation at the laminectomy site” value ([3]; rats, applied at laminectomy site) was “not seen” and the “Bone Growth” value ([3]; two weeks) was 0.1 ± 0.3. The “Deep Scar” value ([3]; two weeks) was 0.3 ± 0.5, the “Gelfoam Appearance” value ([3]; two weeks) was 0.1 ± 0.3 and the “Superficial Scar” value ([3]; two weeks) was 1.2 ± 0.4. The “TOTAL SCORE 4 WEEKS” value [4] was 1.8 ± 0.9.

With “keratan sulfate/chrondroitin sulfate-proteoglycans [KS/CS-PG]” the “Effect of KS/CS-PG on Cell Migration” value ([1]; 0.12 mg/ml KS/CS-PG + LN stripes) was “+”, the “Effect of KS/CS-PG on Cell Migration” value [1, 10] was “+/−” and the “Effect of KS/CS-PG on Cell Migration” value [1, 11] was “+/−”. The “Effect of KS/CS-PG on Cell Migration” value [1, 12] was “+/−”, the “Effect of KS/CS-PG on Cell Migration” value [1, 13] was “−” and the “Effect of KS/CS-PG on Cell Migration” value [2, 10] was “+”. The “Effect of KS/CS-PG on Cell Migration” value [2, 11] was “+/−”, the “Effect of KS/CS-PG on Cell Migration” value [2, 12] was “+/−” and the “Effect of KS/CS-PG on Cell Migration” value [2, 13] was “+/−”.
